# Assay results from patent US20210255193A1, “LYSINE REACTIVE PROBES AND USES THEREOF” (The Scripps Research Institute, priority 2017, published 2021).
# What was measured:
# Experiment in all cases: competitive isoTOP-ABPP
# Type in all cases: binding
# [1] = biological target: T1, LRRC20 Leucine-rich repeat-containing protein 20 (Homo sapiens, UniProt Q8TCA0); conditions: for R value (DMSO/fragment) for probe 1 labeling: Q8TCA0_K43; for R value (DMSO/fragment) for probe 1 labeling / isoTOP-ABPP reactivity ratio at lysine Q8TCA0_K43 / isoTOP-ABPP ratio (R) at liganded lysine Q8TCA0_K43: 50 uM, in vitro; for R value (DMSO/fragment) for probe 1 labeling / isoTOP-ABPP reactivity ratio at lysine Q8TCA0_K43: 231 sol; for isoTOP-ABPP ratio (R) at liganded lysine Q8TCA0_K43: sol, 231
# T1 construct: isoTOP-ABPP experiments performed in cell lysates (in vitro); endogenous in cells; host or cells: soluble proteome of human cancer cell lines (MDA-MB-231; Ramos and Jurkat also prepared)
# T1 sequence (Q8TCA0 1-184): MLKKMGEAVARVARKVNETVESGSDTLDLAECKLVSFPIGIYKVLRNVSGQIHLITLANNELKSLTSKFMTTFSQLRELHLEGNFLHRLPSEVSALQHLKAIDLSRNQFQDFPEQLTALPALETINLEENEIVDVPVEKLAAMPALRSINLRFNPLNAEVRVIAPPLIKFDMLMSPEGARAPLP
# In short: (§1)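 Cell lysate treated in vitro with fragments (50 μM activated esters, 100 μM guanidinylating agents) or DMSO, labelled 1 h at ambient temperature with 0.1 mM STP-alkyne, CuAAC-tagged with light/heavy TEV tags, analysed by MS. R = DMSO/compound MS1 peak-area ratio; lysines with R≥4 called liganded.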
# RTN4 Reticulon-4 = biological target: T2, RTN4 Reticulon-4 (Homo sapiens, UniProt Q9NQC3); conditions: for R value (DMSO/fragment) for probe 1 labeling: Q9NQC3_K1104; for R value (DMSO/fragment) for probe 1 labeling / isoTOP-ABPP reactivity ratio at lysine Q9NQC3_K1104 / isoTOP-ABPP ratio (R) at liganded lysine Q9NQC3_K1104: 50 uM, in vitro; for R value (DMSO/fragment) for probe 1 labeling / isoTOP-ABPP reactivity ratio at lysine Q9NQC3_K1104: 231 sol; for isoTOP-ABPP ratio (R) at liganded lysine Q9NQC3_K1104: sol, 231
# T2 construct: endogenous in cells; host or cells: MDA-MB-231 lysate
# T2 sequence (Q9NQC3 1-1192): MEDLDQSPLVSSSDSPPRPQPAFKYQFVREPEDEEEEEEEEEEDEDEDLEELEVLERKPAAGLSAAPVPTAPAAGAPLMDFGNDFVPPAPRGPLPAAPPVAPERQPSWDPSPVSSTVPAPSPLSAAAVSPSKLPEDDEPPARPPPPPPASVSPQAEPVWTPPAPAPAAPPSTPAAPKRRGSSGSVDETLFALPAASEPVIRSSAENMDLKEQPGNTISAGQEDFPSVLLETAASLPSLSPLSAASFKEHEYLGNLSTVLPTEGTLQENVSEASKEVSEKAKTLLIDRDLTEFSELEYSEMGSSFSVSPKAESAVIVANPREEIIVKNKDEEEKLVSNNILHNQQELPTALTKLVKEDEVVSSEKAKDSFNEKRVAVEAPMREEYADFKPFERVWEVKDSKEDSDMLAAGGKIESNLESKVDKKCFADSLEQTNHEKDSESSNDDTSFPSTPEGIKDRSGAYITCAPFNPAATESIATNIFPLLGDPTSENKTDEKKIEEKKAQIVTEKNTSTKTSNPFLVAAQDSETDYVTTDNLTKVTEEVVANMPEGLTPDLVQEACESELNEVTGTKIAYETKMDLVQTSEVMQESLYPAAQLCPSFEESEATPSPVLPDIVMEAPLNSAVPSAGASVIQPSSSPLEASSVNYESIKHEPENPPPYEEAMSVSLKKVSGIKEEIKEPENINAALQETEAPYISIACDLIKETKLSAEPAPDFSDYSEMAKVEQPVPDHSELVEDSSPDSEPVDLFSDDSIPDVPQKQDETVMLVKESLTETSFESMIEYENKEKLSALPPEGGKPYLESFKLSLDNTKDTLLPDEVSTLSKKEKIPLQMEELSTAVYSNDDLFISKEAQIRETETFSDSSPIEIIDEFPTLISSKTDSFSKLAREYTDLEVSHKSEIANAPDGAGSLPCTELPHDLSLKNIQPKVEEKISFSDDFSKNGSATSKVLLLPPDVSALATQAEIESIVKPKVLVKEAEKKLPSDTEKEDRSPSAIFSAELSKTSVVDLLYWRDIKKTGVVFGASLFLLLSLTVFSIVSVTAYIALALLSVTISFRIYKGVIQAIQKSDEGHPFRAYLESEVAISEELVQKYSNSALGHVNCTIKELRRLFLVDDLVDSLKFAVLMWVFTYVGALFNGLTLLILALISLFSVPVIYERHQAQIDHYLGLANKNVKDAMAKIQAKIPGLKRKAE
# In short: as §1
# [2] = biological target: T3, DNMT1 DNA (cytosine-5)-methyltransferase 1 (Homo sapiens, UniProt P26358); conditions: for R value (DMSO/fragment) for probe 1 labeling: P26358_K45; for R value (DMSO/fragment) for probe 1 labeling / isoTOP-ABPP reactivity ratio at lysine P26358_K45 / isoTOP-ABPP ratio (R) at liganded lysine P26358_K45: 50 uM, in vitro; for R value (DMSO/fragment) for probe 1 labeling / isoTOP-ABPP reactivity ratio at lysine P26358_K45: 231 sol; for isoTOP-ABPP ratio (R) at liganded lysine P26358_K45: sol, 231
# T3 construct: isoTOP-ABPP experiments performed in cell lysates (in vitro); endogenous in cells; host or cells: soluble proteome of human cancer cell lines (MDA-MB-231; Ramos and Jurkat also prepared)
# In short: as §1
# T3 sequence (P26358 whole entry, the tested form may be a part): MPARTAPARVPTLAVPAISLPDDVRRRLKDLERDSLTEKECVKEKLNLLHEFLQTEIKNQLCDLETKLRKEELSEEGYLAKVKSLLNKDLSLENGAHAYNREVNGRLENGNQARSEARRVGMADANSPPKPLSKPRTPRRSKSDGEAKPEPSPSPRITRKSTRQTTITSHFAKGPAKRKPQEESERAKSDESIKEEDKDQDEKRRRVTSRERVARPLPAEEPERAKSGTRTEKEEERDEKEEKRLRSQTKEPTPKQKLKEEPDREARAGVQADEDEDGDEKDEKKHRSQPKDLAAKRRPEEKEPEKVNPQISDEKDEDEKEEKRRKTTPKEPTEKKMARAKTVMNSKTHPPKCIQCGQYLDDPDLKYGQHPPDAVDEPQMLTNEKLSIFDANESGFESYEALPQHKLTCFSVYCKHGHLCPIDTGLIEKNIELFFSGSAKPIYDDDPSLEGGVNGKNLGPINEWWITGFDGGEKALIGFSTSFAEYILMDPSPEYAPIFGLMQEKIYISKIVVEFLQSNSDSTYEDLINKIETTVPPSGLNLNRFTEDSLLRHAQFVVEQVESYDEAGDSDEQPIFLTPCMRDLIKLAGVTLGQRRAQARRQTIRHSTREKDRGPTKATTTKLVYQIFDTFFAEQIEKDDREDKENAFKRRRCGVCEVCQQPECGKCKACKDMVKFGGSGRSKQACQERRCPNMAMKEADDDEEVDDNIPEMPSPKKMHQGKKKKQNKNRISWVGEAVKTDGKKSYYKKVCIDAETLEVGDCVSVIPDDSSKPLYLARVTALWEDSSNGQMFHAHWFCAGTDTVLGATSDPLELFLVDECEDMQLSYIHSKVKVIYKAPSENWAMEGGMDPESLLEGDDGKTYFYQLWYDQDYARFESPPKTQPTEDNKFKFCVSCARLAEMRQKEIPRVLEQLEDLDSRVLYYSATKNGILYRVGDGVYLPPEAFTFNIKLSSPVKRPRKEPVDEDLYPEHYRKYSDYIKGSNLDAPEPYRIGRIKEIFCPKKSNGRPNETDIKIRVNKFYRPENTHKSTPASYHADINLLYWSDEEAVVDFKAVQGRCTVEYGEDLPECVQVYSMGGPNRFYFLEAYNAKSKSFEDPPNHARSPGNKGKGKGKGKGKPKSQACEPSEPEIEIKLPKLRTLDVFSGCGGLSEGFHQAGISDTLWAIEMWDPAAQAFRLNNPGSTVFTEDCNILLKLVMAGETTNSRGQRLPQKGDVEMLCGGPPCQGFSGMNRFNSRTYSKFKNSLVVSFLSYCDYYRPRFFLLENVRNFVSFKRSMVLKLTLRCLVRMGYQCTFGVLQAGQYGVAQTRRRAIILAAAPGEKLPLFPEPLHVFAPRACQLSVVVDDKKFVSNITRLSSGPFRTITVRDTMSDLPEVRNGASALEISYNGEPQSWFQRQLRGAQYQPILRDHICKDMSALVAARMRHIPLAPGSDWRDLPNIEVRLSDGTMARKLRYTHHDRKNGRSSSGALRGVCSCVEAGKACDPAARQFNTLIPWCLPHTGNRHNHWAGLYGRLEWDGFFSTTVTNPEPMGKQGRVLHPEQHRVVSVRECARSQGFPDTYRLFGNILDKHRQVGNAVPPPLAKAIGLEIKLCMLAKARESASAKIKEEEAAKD
compound,measurement,setting,value
"O=C(CCc1cn(-c2ccccc2)nc1-c1ccccc1)Oc1c(F)c(F)c(F)c(F)c1F [fragment 19, Pentafluorophenyl 3-(1,3-diphenyl-1H-pyrazol-4-yl)propanoate]",R value (DMSO/fragment) for probe 1 labeling,[1],1.1
"O=C(Oc1c(F)c(F)c(F)c(F)c1F)C(c1ccccc1)c1ccccc1 [fragment 20, Pentafluorophenyl 2,2-diphenylacetate]",R value (DMSO/fragment) for probe 1 labeling,[1],0.7
same,R value (DMSO/fragment) for probe 1 labeling,RTN4 Reticulon-4,2.4
same,R value (DMSO/fragment) for probe 1 labeling,[2],7.3
"O=C(Oc1c(F)c(F)c(F)c(F)c1F)c1cc(C(F)(F)F)cc(C(F)(F)F)c1 [fragment 21, Pentafluorophenyl 3,5-bis(trifluoromethyl)benzoate]",R value (DMSO/fragment) for probe 1 labeling,[1],1.0
same,R value (DMSO/fragment) for probe 1 labeling,RTN4 Reticulon-4,2.5
same,R value (DMSO/fragment) for probe 1 labeling,[2],1.4
"Cn1cc(CC(=O)Oc2c(F)c(F)c(F)c(F)c2F)c2ccccc21 [fragment 22, Pentafluorophenyl 2-(1-methyl-1H-indol-3-yl)acetate]",R value (DMSO/fragment) for probe 1 labeling,[1],0.9
same,R value (DMSO/fragment) for probe 1 labeling,[2],0.9
"COc1cc(CCC(=O)Oc2c(F)c(F)c(F)c(F)c2F)cc(OC)c1OC [fragment 23, Pentafluorophenyl 3-(3,4,5-trimethoxyphenyl)propanoate]",R value (DMSO/fragment) for probe 1 labeling,RTN4 Reticulon-4,3.3
"O=C(Oc1c(F)c(F)c(F)c(F)c1F)C1CCN(C(=O)OCc2ccccc2)CC1 [fragment 24, 1-Benzyl 4-(pentafluorophenyl) piperidine-1,4-dicarboxylate]",isoTOP-ABPP reactivity ratio at lysine Q9NQC3_K1104,RTN4 Reticulon-4,2.3
"O=C(Oc1c(F)c(F)c(F)c(F)c1F)c1ccc2ccccc2n1 [fragment 25, Pentafluorophenyl quinoline-2-carboxylate]",isoTOP-ABPP reactivity ratio at lysine P26358_K45,[2],0.9
"O=C(CCc1coc2cc(F)ccc2c1=O)Oc1c(F)c(F)c(F)c(F)c1F [fragment 26, Pentafluorophenyl 3-(7-fluoro-4-oxo-4H-chromen-3-yl)propanoate]",isoTOP-ABPP reactivity ratio at lysine Q8TCA0_K43,[1],0.8
same,isoTOP-ABPP reactivity ratio at lysine Q9NQC3_K1104,RTN4 Reticulon-4,5.3
"CCn1cc(C(=O)Oc2c(F)c(F)c(F)c(F)c2F)c(=O)c2ccc(C)nc21 [fragment 28, Pentafluorophenyl 1-ethyl-7-methyl-4-oxo-1,4-dihydro-1,8-naphthyridine-3-carboxylate]",isoTOP-ABPP reactivity ratio at lysine Q9NQC3_K1104,RTN4 Reticulon-4,1.0
"O=C(Oc1ccc([N+](=O)[O-])cc1[N+](=O)[O-])C(c1ccccc1)c1ccccc1 [fragment 30, 2,4-Dinitrophenyl 2,2-diphenylacetate]",isoTOP-ABPP reactivity ratio at lysine Q8TCA0_K43,[1],1.5
"O=C(Oc1ccc([N+](=O)[O-])cc1[N+](=O)[O-])c1cc(C(F)(F)F)cc(C(F)(F)F)c1 [fragment 31, 2,4-Dinitrophenyl 3,5-bis(trifluoromethyl)benzoate]",isoTOP-ABPP reactivity ratio at lysine Q9NQC3_K1104,RTN4 Reticulon-4,6.1
"COc1cc(CCC(=O)Oc2ccc([N+](=O)[O-])cc2[N+](=O)[O-])cc(OC)c1OC [fragment 33, 2,4-Dinitrophenyl 3-(3,4,5-trimethoxyphenyl)propanoate]",isoTOP-ABPP reactivity ratio at lysine Q9NQC3_K1104,RTN4 Reticulon-4,4.3
same,isoTOP-ABPP reactivity ratio at lysine P26358_K45,[2],0.9
"O=C(Oc1ccc([N+](=O)[O-])cc1[N+](=O)[O-])c1ccc2ccccc2n1 [fragment 35, 2,4-Dinitrophenyl quinoline-2-carboxylate]",isoTOP-ABPP ratio (R) at liganded lysine Q8TCA0_K43,[1],1.0
same,isoTOP-ABPP ratio (R) at liganded lysine Q9NQC3_K1104,RTN4 Reticulon-4,6.0
"O=C(CCc1coc2cc(F)ccc2c1=O)Oc1ccc([N+](=O)[O-])cc1[N+](=O)[O-] [fragment 36, 2,4-Dinitrophenyl 3-(7-fluoro-4-oxo-4H-chromen-3-yl)propanoate]",isoTOP-ABPP ratio (R) at liganded lysine Q8TCA0_K43,[1],1.1
same,isoTOP-ABPP ratio (R) at liganded lysine P26358_K45,[2],0.8
"O=C(Oc1ccc([N+](=O)[O-])cc1[N+](=O)[O-])c1ccc(-c2ccccc2)cc1 [fragment 37, 2,4-Dinitrophenyl [1,1′-biphenyl]-4-carboxylate]",isoTOP-ABPP ratio (R) at liganded lysine Q9NQC3_K1104,RTN4 Reticulon-4,3.4
same,isoTOP-ABPP ratio (R) at liganded lysine P26358_K45,[2],0.7
"O=C(Oc1ccc([N+](=O)[O-])cc1[N+](=O)[O-])c1ccc(Oc2ccccc2)cc1 [fragment 39, 2,4-Dinitrophenyl 4-phenoxybenzoate]",isoTOP-ABPP ratio (R) at liganded lysine Q8TCA0_K43,[1],0.9
same,isoTOP-ABPP ratio (R) at liganded lysine P26358_K45,[2],1.0
"O=C(Oc1ccc([N+](=O)[O-])cc1[N+](=O)[O-])c1ccccc1Nc1cccc(C(F)(F)F)c1 [fragment 40, 2,4-Dinitrophenyl 2-((3-(trifluoromethyl)phenyl)amino)benzoate]",isoTOP-ABPP ratio (R) at liganded lysine Q9NQC3_K1104,RTN4 Reticulon-4,2.1
"CC(C)(C)OC(=O)NCCCC(=O)Oc1ccc([N+](=O)[O-])cc1[N+](=O)[O-] [fragment 41, 2,4-Dinitrophenyl 4-((tert-butoxycarbonyl)amino)butanoate]",isoTOP-ABPP ratio (R) at liganded lysine Q9NQC3_K1104,RTN4 Reticulon-4,4.3
"O=C(Oc1ccc([N+](=O)[O-])cc1[N+](=O)[O-])C(c1ccccc1)(c1ccccc1)c1ccccc1 [fragment 42, 2,4-Dinitrophenyl 2,2,2-triphenylacetate]",isoTOP-ABPP ratio (R) at liganded lysine Q8TCA0_K43,[1],1.3
same,isoTOP-ABPP ratio (R) at liganded lysine Q9NQC3_K1104,RTN4 Reticulon-4,1.2
"CC(=O)Oc1ccc([N+](=O)[O-])cc1[N+](=O)[O-] [fragment 43, 2,4-Dinitrophenyl acetate]",isoTOP-ABPP ratio (R) at liganded lysine Q8TCA0_K43,[1],1.2
same,isoTOP-ABPP ratio (R) at liganded lysine Q9NQC3_K1104,RTN4 Reticulon-4,1.4
"O=C(CCc1ccc2c(c1)OCO2)Oc1ccc([N+](=O)[O-])cc1[N+](=O)[O-] [fragment 45, 2,4-Dinitrophenyl 3-(benzo[d][1,3]dioxol-5-yl)propanoate]","isoTOP-ABPP ratio, lysine Q8TCA0_K43",[1]; 50 uM_231_sol_in vitro,0.8
same,"isoTOP-ABPP ratio, lysine P26358_K45",[2]; 50 uM_231_sol_in vitro,1.0
"O=C(Oc1c(F)c(F)c(C(F)(F)F)c(F)c1F)c1cc(C(F)(F)F)cc(C(F)(F)F)c1 [fragment 47, 2,3,5,6-Tetrafluoro-4-(trifluoromethyl)phenyl 3,5-bis(trifluoromethyl)benzoate]","isoTOP-ABPP ratio, lysine Q9NQC3_K1104",RTN4 Reticulon-4; 50 uM_231_sol_in vitro,3.8
"O=C(Oc1c(F)c(F)cc(F)c1F)c1cc(C(F)(F)F)cc(C(F)(F)F)c1 [fragment 48, 2,3,5,6-Tetrafluorophenyl 3,5-bis(trifluoromethyl)benzoate]","isoTOP-ABPP ratio, lysine P26358_K45",[2]; 50 uM_231_sol_in vitro,1.1
"COC(=O)NC(=NC(=O)OCC1c2ccccc2-c2ccccc21)n1cccn1 [fragment 49, N-Methoxycarbonyl-N′-9-fluorenylmethoxycarbonyl-pyrazole-1-carboxamidine]","isoTOP-ABPP ratio, lysine Q8TCA0_K43",[1]; 100 uM_231_sol_in vitro,14.0
same,"isoTOP-ABPP ratio, lysine P26358_K45",[2]; 100 uM_231_sol_in vitro,1.3
"CC(C)(C)OC(=O)N=C(NC(=O)OC(C)(C)C)n1cccn1 [fragment 50, reference compound]","isoTOP-ABPP ratio, lysine Q8TCA0_K43",[1]; 100 uM_231_sol_in vitro,1.3
same,"isoTOP-ABPP ratio, lysine Q9NQC3_K1104",RTN4 Reticulon-4; 100 uM_231_sol_in vitro,1.4
"NC(=O)c1cc(C(F)(F)F)cc(C(F)(F)F)c1 [fragment 51, reference compound]","isoTOP-ABPP ratio, lysine Q9NQC3_K1104",RTN4 Reticulon-4; 50 uM_231_sol_in vitro,0.7
